Test results as given in publication PMC4775225, “Bromodomain inhibition of the transcriptional coactivators CBP/EP300 as a therapeutic strategy to target the IRF4 network in multiple myeloma” (eLife, 2016).
Like-named read-outs stand apart in the source and are kept apart here.

Assays:
[1] = biological target: T1, first bromodomain of BRD4 (BRD4-BD1) (Homo sapiens, UniProt O60885); assay: AlphaLISA, acetylated peptide binding to BRD4-BD1
T1 construct: the first bromodomain of BRD4 (BRD4-BD1)
Description: Compound at varying concentrations were dispensed into 384 well Proxiplates (Perkin Elmer) using Echo technology (Labcyte, Inc.; Sunnyvale, CA). For CBP assays, 0.5 μM His-Flag-tagged CBP bromodomain (amino acids 1082–1197) was incubated with 0.003 μM H4-TetraAc-biotin for 20 min at room temperature in 1x reaction buffer (50 mM HEPES pH 7.5, 1 mM TCEP, 0.069 mM Brij-35, 150 mM NaCl, and 0.1 mg/ml BSA). Streptavidin acceptor beads and nickel donor beads (Perkin Elmer) were added to 15 μg/ml with a Combi Multidrop dispenser. Plates were sealed and incubated at 90 min in the dark at room temperature, and plates were read on an Envision plate reader (Perkin Elmer) according to manufacturer’s instructions. For the BET assays, the protocol was similar except that BET family bromodomains were used at 0.03 μM (BRD4-BD1) and incubated with 0.2 μM H4-TetraAc-biotin for 20 min in reaction buffer (40 mM HEPES pH7.0, 1 mM DTT, 0.069 mM Brij-35, 40 mM NaCl, and 0.1 mg/ml BSA). Streptavidin donor beads and Anti-Flag Acceptor beads (Perkin Elmer) were added to 10 μg/ml, and then plates were sealed and incubated in the dark for 60 min prior to reading on the Envision.

IRF4 mRNA = IRF4 mRNA expression, qRT-PCR; format: cell-based, human; conditions: for IC50: Homo sapiens, read-out: IC50, inhibition of IRF4 mRNA expression; for log2FC (IRF4): 2.5 μM, 6 hr, log2 fold change relative to DMSO
Description: Total RNA was prepared with an RNeasy Mini Kit (Qiagen, Inc.; Hilden, Germany) with on column DNAse digestion and submitted to Ocean Ridge Biosciences (Palm Beach Gardens, FL) for sequencing and mapping. The data in RPKM for each gene with compound treatment was compared to DMSO treatment, and log2 fold changes were used for further analysis. Rank ordered gene lists were used for Gene Set Enrichment Analysis ([Subramanian et al., 2005]). RNA preparation, cDNA synthesis, and qRT-PCR were performed as described ([Mertz et al., 2011]). For dose titration experiments, cells in 96 -well plates were lysed in lysis buffer (1% Triton X-100, […] pH 2.5) and used directly for cDNA synthesis and qRT-PCR. Primer sequences can be found in Supplementary file 1.

BPTF bromodomain = biological target: T2, BPTF bromodomain (Homo sapiens, UniProt Q12830); assay: Differential scanning fluorimetry; format: binding; conditions: BPTF 4–8 μM, compound 20 μM; read-out: DTm
T2 construct: Differential scanning fluorimetry was carried out with the indicated isolated bromodomains at 4–8 μM
Description: (§1) Variable buffer compositions were used for the different bromodomain proteins with 12X SYPRO orange dye, 20 μM of the compounds or equivalent percentage of DMSO, and 4–8 µM of the indicated protein. […] The melting temperature (Tm) for each sample was determined using the ViiA7 software (version 1.2.2) and the ΔTm was calculated by subtracting the Tm of the control from the Tm of the compound treated sample.

BRD8 bromodomain = assay: Differential scanning fluorimetry; format: binding; conditions: BRD8 4–8 μM, compound 20 μM
Description: as §1

BRPF3 bromodomain = biological target: T3, BRPF3 bromodomain (Homo sapiens, UniProt Q9ULD4); assay: Differential scanning fluorimetry; format: binding; conditions: BRPF3 4–8 μM, compound 20 μM; read-out: DTm
T3 construct: Differential scanning fluorimetry was carried out with the indicated isolated bromodomains at 4–8 μM
Description: as §1

PCAF bromodomain = biological target: T4, PCAF bromodomain (Homo sapiens, UniProt Q92831); assay: Differential scanning fluorimetry; format: binding; conditions: PCAF 4–8 μM, compound 20 μM; read-out: DTm
T4 construct: Differential scanning fluorimetry was carried out with the indicated isolated bromodomains at 4–8 μM
Description: as §1

BRPF1 bromodomain = biological target: T5, BRPF1 bromodomain (Homo sapiens, UniProt P55201); assay: Differential scanning fluorimetry; format: binding; conditions: BRPF1 4–8 μM, compound 20 μM; read-out: DTm
T5 construct: Differential scanning fluorimetry was carried out with the indicated isolated bromodomains at 4–8 μM
Description: as §1

TAF1 BD1 BD2 = biological target: T6, TAF1 BD1 BD2 (Homo sapiens, UniProt P21675); assay: Differential scanning fluorimetry; format: binding; conditions: TAF1 BD1 BD2 4–8 μM, compound 20 μM; read-out: DTm
T6 construct: Differential scanning fluorimetry was carried out with the indicated isolated bromodomains at 4–8 μM
Description: as §1

WDR9 bromodomain = assay: Differential scanning fluorimetry; format: binding; conditions: WDR9 4–8 μM, compound 20 μM
Description: as §1

BRG1 bromodomain = biological target: T7, BRG1 bromodomain (Homo sapiens, UniProt P51532); assay: Differential scanning fluorimetry; format: binding; conditions: BRG1 4–8 μM, compound 20 μM; read-out: DTm
T7 construct: Differential scanning fluorimetry was carried out with the indicated isolated bromodomains at 4–8 μM
Description: as §1

GCN5 bromodomain = GCN5 bromodomain (Homo sapiens, UniProt Q92830); assay: Differential scanning fluorimetry; format: binding; conditions: GCN5 4–8 μM, compound 20 μM; read-out: DTm
Description: as §1

BAZ2B bromodomain = biological target: T8, BAZ2B bromodomain (Homo sapiens, UniProt Q9UIF8); assay: Differential scanning fluorimetry; format: binding; conditions: BAZ2B 4–8 μM, compound 20 μM; read-out: DTm
T8 construct: Differential scanning fluorimetry was carried out with the indicated isolated bromodomains at 4–8 μM
Description: as §1

BAZ1A bromodomain = biological target: T9, BAZ1A bromodomain (Homo sapiens, UniProt Q9NRL2); assay: Differential scanning fluorimetry; format: binding; conditions: BAZ1A 4–8 μM, compound 20 μM; read-out: DTm
T9 construct: Differential scanning fluorimetry was carried out with the indicated isolated bromodomains at 4–8 μM
Description: as §1

BRD9 bromodomain = biological target: T10, BRD9 bromodomain (Homo sapiens, UniProt Q9H8M2); assay: Differential scanning fluorimetry; format: binding; conditions: BRD9 4–8 μM, compound 20 μM; read-out: DTm
T10 construct: Differential scanning fluorimetry was carried out with the indicated isolated bromodomains at 4–8 μM
Description: as §1

BRD4 bromodomain = assay: Differential scanning fluorimetry; format: binding; conditions: BRD4 4–8 μM, compound 20 μM
Description: as §1

TRIM24 bromodomain = biological target: T11, TRIM24 bromodomain (Homo sapiens, UniProt O15164); assay: Differential scanning fluorimetry; format: binding; conditions: TRIM24 4–8 μM, compound 20 μM; read-out: DTm
T11 construct: Differential scanning fluorimetry was carried out with the indicated isolated bromodomains at 4–8 μM
Description: as §1

BRD1 bromodomain = biological target: T12, BRD1 bromodomain (Homo sapiens, UniProt O95696); assay: Differential scanning fluorimetry; format: binding; conditions: BRD1 4–8 μM, compound 20 μM; read-out: DTm
T12 construct: Differential scanning fluorimetry was carried out with the indicated isolated bromodomains at 4–8 μM
Description: as §1

ASH1L bromodomain = biological target: T13, ASH1L bromodomain (Homo sapiens, UniProt Q9NR48); assay: Differential scanning fluorimetry; format: binding; conditions: ASH1L 4–8 μM, compound 20 μM; read-out: DTm
T13 construct: Differential scanning fluorimetry was carried out with the indicated isolated bromodomains at 4–8 μM
Description: as §1

BRD7 bromodomain = biological target: T14, BRD7 bromodomain (Homo sapiens, UniProt Q9NPI1); assay: Differential scanning fluorimetry; format: binding; conditions: BRD7 4–8 μM, compound 20 μM; read-out: DTm
T14 construct: Differential scanning fluorimetry was carried out with the indicated isolated bromodomains at 4–8 μM
Description: as §1

CECR2 bromodomain = biological target: T15, CECR2 bromodomain (Homo sapiens, UniProt Q9BXF3); assay: Differential scanning fluorimetry; format: binding; conditions: CECR2 4–8 μM, compound 20 μM; read-out: DTm
T15 construct: Differential scanning fluorimetry was carried out with the indicated isolated bromodomains at 4–8 μM
Description: as §1

T14 sequence (Q9NPI1 131-235 limits assumed): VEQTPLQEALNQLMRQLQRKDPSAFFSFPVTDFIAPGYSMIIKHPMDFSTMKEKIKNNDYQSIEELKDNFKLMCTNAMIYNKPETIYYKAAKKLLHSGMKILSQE
T6 sequence (P21675 1397-1628 limits assumed): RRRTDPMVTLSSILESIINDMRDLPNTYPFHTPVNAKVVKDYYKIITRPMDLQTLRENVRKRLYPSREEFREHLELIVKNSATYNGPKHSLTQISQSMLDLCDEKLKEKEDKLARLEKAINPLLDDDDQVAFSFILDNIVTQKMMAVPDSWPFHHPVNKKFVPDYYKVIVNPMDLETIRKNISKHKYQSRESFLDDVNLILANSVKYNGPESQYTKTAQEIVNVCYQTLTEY
T4 sequence (Q92831 723-827 limits assumed): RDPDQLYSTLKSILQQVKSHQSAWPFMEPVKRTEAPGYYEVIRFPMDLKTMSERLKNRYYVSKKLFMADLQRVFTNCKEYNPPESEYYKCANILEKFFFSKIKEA
T15 sequence (Q9BXF3 434-538 limits assumed): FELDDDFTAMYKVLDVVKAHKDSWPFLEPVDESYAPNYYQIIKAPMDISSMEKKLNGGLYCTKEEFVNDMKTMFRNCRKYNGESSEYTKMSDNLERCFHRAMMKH
T9 sequence (Q9NRL2 1430-1533 limits assumed): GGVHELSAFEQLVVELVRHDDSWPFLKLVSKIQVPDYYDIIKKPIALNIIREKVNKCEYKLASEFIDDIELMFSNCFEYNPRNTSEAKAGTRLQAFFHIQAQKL
T12 sequence (O95696 562-666 limits assumed): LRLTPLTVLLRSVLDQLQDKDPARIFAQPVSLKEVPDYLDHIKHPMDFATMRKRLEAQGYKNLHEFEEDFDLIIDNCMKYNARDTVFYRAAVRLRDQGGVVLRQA
T7 sequence (P51532 1453-1564 limits assumed): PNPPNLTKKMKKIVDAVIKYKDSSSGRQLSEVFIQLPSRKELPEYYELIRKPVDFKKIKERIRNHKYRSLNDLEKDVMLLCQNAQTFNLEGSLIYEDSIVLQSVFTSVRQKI
T8 sequence (Q9UIF8 2060-2164 limits assumed): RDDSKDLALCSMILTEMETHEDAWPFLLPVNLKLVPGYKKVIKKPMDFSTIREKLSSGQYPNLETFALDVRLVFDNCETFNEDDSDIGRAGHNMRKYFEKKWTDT
GCN5 bromodomain, sequence (Q92830 728-832 limits assumed): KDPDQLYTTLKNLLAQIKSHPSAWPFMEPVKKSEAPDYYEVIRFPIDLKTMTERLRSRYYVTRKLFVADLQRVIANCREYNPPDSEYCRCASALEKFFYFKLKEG
T3 sequence (Q9ULD4 589-693 limits assumed): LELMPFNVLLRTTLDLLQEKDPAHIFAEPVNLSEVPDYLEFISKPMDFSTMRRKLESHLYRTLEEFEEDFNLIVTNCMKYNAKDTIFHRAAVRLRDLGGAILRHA
T11 sequence (O15164 899-1004 limits assumed): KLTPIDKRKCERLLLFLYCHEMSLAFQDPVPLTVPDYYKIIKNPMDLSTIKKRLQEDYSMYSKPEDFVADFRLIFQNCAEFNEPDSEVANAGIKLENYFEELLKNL
T10 sequence (Q9H8M2 136-240 limits assumed): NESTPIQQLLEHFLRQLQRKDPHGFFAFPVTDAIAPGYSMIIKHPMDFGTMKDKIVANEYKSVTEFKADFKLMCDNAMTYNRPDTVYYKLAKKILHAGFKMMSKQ
T5 sequence (P55201 628-732 limits assumed): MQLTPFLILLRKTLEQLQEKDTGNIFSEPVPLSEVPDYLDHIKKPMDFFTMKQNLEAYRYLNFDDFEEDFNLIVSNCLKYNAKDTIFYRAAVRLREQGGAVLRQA

| IC50 [1] | IC50 (IRF4 mRNA; OPM-2, OPM2, 6 hr) | IC50 (IRF4 mRNA; LP-1, 6 hr) | ΔTm at 20 µM (BPTF bromodomain) | ΔTm at 20 µM (BRPF3 bromodomain) | ΔTm at 20 µM (PCAF bromodomain) | ΔTm at 20 µM (BRPF1 bromodomain) | ΔTm at 20 µM (TAF1 BD1 BD2) | ΔTm at 20 µM (BRG1 bromodomain) | ΔTm at 20 µM (GCN5 bromodomain) | ΔTm at 20 µM (BAZ2B bromodomain) | ΔTm at 20 µM (BAZ1A bromodomain) | ΔTm at 20 µM (BRD9 bromodomain) | ΔTm at 20 µM (TRIM24 bromodomain) | ΔTm at 20 µM (BRD1 bromodomain) | ΔTm at 20 µM (ASH1L bromodomain) | ΔTm at 20 µM (BRD7 bromodomain) | Structure (SMILES) | DTm (BRD8 bromodomain) | DTm (WDR9 bromodomain) | DTm (BRD4 bromodomain) | further results |
| --- | --- | --- | --- | --- | --- | --- | --- | --- | --- | --- | --- | --- | --- | --- | --- | --- | --- | --- | --- | --- | --- |
| 8900 ± 60 nM | 2900 nM | 2000 nM | 0.93 °C | 0.75 °C | -0.08 °C | 0.11 °C | 0.12 °C | 0.38 °C | 0.14 °C | 0.28 °C | 0.41 °C | 0.37 °C | 0.32 °C | -0.44 °C | 0.04 °C | 0.44 °C | CCC(=O)N1CCOc2c(cc(-c3ccc(OC)c(OC)c3)cc2OC[C@H]2CCCN(C)C2)C1 [I-CBP112] | 0.88 °C | 0.04 °C | 2.12 °C | ΔTm at 20 µM (CECR2 bromodomain): 1.46 °C |
| 2100 ± 300 nM | 1100 nM | 860 nM | 0.69 °C | -0.18 °C | -0.08 °C | 0.11 °C | 0.12 °C | 0.27 °C | -0.09 °C | -0.06 °C | 0.18 °C | 0.37 °C | 0.43 °C | 0.26 °C | 0.04 °C | 0.5 °C | COc1ccc(CCc2nc3cc(-c4c(C)noc4C)ccc3n2C[C@H](C)N2CCOCC2)cc1Cl [SGC-CBP30] | 0.76 °C | -0.08 °C | 2.01 °C | log2FC (IRF4) (IRF4 mRNA; AMO1): -1.36; log2FC (IRF4) (IRF4 mRNA; H929): -0.75; log2FC (IRF4) (IRF4 mRNA; KMM1): -0.53; log2FC (IRF4) (IRF4 mRNA; KMS28BM): -0.93; log2FC (IRF4) (IRF4 mRNA; LP1): -1.23; time to suppression of IRF4 after addition of compound (IRF4 mRNA; LP-1, 2.5 μM): ≤ 2 h; log2FC (IRF4) (IRF4 mRNA; MOLP8): -1.29; log2FC (IRF4) (IRF4 mRNA; OPM2): -0.98; log2FC (IRF4) (IRF4 mRNA; RPMI8226): -0.55; log2FC (IRF4) (IRF4 mRNA; RS411): -0.31; ΔTm at 20 µM (CECR2 bromodomain): 0.76 °C |
